Literature values as cited in PMC7876056, “Population Pharmacokinetic Analysis of Yimitasvir in Chinese Healthy Volunteers and Patients With Chronic Hepatitis C Virus Infection” (Frontiers in Pharmacology, 2021).
Like-named read-outs stand apart in the source and are kept apart here.

Conditions: cited from earlier work; for Time-varying ALT as covariate on PK: healthy volunteers and HCV patients
[1] = ref U.S. Food and Drug Administration, 2014
[2] = ref U.S. Food and Drug Administration, 2016

COC(=O)N[C@H](C(=O)N1CC2(CC2)C[C@H]1c1ncc(-c2ccc3c(c2)C(F)(F)c2cc(-c4ccc5nc([C@@H]6[C@H]7CC[C@H](C7)N6C(=O)[C@@H](NC(=O)OC)C(C)C)[nH]c5c4)ccc2-3)[nH]1)C(C)C [ledipasvir]
Time-varying ALT as covariate on PK [1]: not identified as a significant covariate | Effect of co-medication of sofosbuvir on PK profile (ref German et al., 2016): not affected by co-medication of sofosbuvir | Gender effect on CL/F [1]: lower CL/F values in females

COC(=O)N[C@H](C(=O)N1CCC[C@H]1c1nc(-c2ccc(-c3ccc(-c4c[nH]c([C@@H]5CCCN5C(=O)[C@@H](NC(=O)OC)C(C)C)n4)cc3)cc2)c[nH]1)C(C)C [daclatasvir]
Time-varying ALT as covariate on CL/F (patient population only, ref Chan et al., 2017): significant covariate | Effect of time-varying ALT on AUCss (ref Chan et al., 2017): small | Gender effect on CL/F (ref Chan et al., 2017): lower CL/F values in females

COC[C@H]1C[C@@H](c2ncc(-c3ccc4c(c3)COc3cc5c(ccc6nc([C@@H]7CC[C@H](C)N7C(=O)[C@@H](NC(=O)OC)C(C)C)[nH]c65)cc3-4)[nH]2)N(C(=O)[C@H](NC(=O)OC)c2ccccc2)C1 [velpatasvir]
Time-varying ALT as covariate on PK [2]: not identified as a significant covariate | Effect of co-medication of sofosbuvir on PK profile (ref Brieva et al., 2017): not affected by co-medication of sofosbuvir | Gender effect on CL/F [2]: lower CL/F values in females
